{"source": "patent US6375993B1", "about": "“Pomegranate extracts and methods of using thereof” (priority 1999, dated 2002)", "test": "Copper-ions chelating capacity (LDL oxidation at increasing CuSO4)", "format": "biochemical", "conditions": "25 μmol/L of EDTA; TBARS, two hours, 37° C.", "procedure": "In order to examine whether pomegranate juice inhibits LDL oxidation by chelation of metal ions, LDL (100 mg of protein/L) was incubated with 0.2 mL of pomegranate juice/L (0.56 μmol of polyphenols/L) in the presence of increasing concentrations of copper ions. Incubation of LDL with 25 μmol/L of Na2 EDTA served as a positive control, as EDTA is a potent chelator of metal ions. […] At higher copper ion concentrations, EDTA could no longer overcome the pro-oxidative effect of CuSO4.", "data": [{"smiles": "O=C([O-])CN(CCN(CC(=O)[O-])CC(=O)O)CC(=O)O.[Na+].[Na+]", "note": "[EDTA, Na2 EDTA]", "values": [{"measurement": "CuSO4 concentration up to which copper ion-induced LDL oxidation was inhibited", "result": "up to 40 μmol/L"}]}]}
